From the NIST ThermoML archive (doi:10.1021/je034162x)

Conditions: 101.33 kPa, Liquid, Hot wire method

Cc1ccc(C)cc1 [1,4-dimethylbenzene]
Conditions	thermal conductivity [W/m/K]	thermal diffusivity [m2/s]
287.33 K	0.1296	–
287.55 K	0.1295	–
287.73 K	0.1294	–
288.19 K	–	8.96e-08
288.74 K	–	8.89e-08
289.19 K	–	8.92e-08
294.03 K	0.1278	–
294.27 K	0.1278	–
294.44 K	0.1277	–
294.86 K	–	8.78e-08
295.48 K	–	8.82e-08
295.9 K	–	8.82e-08
311.71 K	0.1234	–
311.94 K	0.1232	–
312.11 K	0.1231	–
312.56 K	–	8.41e-08
313.14 K	–	8.38e-08
313.56 K	–	8.36e-08
328.75 K	0.1191	–
328.99 K	0.119	–
329.16 K	0.1189	–
329.6 K	–	8.03e-08
330.21 K	–	8.02e-08
330.63 K	–	8.01e-08

[2H]c1c([2H])c([2H])c(C([2H])([2H])[2H])c([2H])c1[2H] [toluene-d8]
Conditions	thermal conductivity [W/m/K]	thermal diffusivity [m2/s]
259.69 K	0.1349	–
259.91 K	0.1348	–
260.06 K	0.1348	–
260.47 K	–	8.33e-08
261.03 K	–	8.36e-08
261.42 K	–	8.36e-08
279.35 K	0.1298	–
279.57 K	0.1297	–
279.73 K	0.1296	–
280.14 K	–	7.9e-08
280.69 K	–	7.9e-08
281.08 K	–	7.88e-08
296.9 K	0.1251	–
297.13 K	0.1249	–
297.28 K	0.1249	–
297.69 K	–	7.52e-08
298.25 K	–	7.51e-08
298.64 K	–	7.51e-08
315.84 K	0.12	–
316.08 K	0.1199	–
316.24 K	0.1198	–
316.65 K	–	7.15e-08
317.21 K	–	7.13e-08
317.61 K	–	7.11e-08
326.47 K	0.1173	–
326.7 K	0.1172	–
326.87 K	0.117	–
327.28 K	–	6.95e-08
327.85 K	–	6.93e-08
328.25 K	–	6.9e-08

CC(C)=C(C)C [2,3-dimethyl-2-butene]
Conditions	thermal conductivity [W/m/K]	thermal diffusivity [m2/s]
258.89 K	0.1356	–
259.17 K	0.1355	–
259.37 K	0.1354	–
260.14 K	–	9.38e-08
260.96 K	–	9.41e-08
261.54 K	–	9.41e-08
278.21 K	0.1285	–
278.5 K	0.1283	–
278.72 K	0.1283	–
279.54 K	–	8.88e-08
280.38 K	–	8.85e-08
281 K	–	8.85e-08
294.09 K	0.1228	–
294.4 K	0.1226	–
294.63 K	0.1225	–
295.49 K	–	8.48e-08
296.37 K	–	8.44e-08
297.02 K	–	8.45e-08
312.76 K	0.1162	–
313.09 K	0.116	–
313.34 K	0.1159	–
314.2 K	–	7.96e-08
315.15 K	–	7.95e-08
315.82 K	–	7.94e-08
322.4 K	0.1128	–
322.74 K	0.1126	–
322.98 K	0.1125	–
323.81 K	–	7.58e-08
324.73 K	–	7.56e-08
325.39 K	–	7.54e-08
326.42 K	0.1116	–
326.77 K	0.1115	–
327.02 K	0.1114	–
327.89 K	–	7.6e-08
328.9 K	–	7.63e-08
329.57 K	–	7.59e-08

C1CCCCC1 [cyclohexane]
Conditions	thermal conductivity [W/m/K]	thermal diffusivity [m2/s]
280.83 K	0.1232	–
281 K	0.1231	–
281.15 K	0.123	–
281.38 K	–	8.75e-08
281.78 K	–	8.73e-08
282.12 K	–	8.75e-08
295.53 K	0.119	–
295.7 K	0.1189	–
295.83 K	0.1187	–
296.05 K	–	8.25e-08
296.45 K	–	8.28e-08
296.76 K	–	8.24e-08
300.84 K	0.1175	–
301 K	0.1173	–
301.14 K	0.1172	–
301.35 K	–	8.09e-08
301.73 K	–	8.06e-08
302.06 K	–	8.09e-08
318.66 K	0.1124	–
318.82 K	0.1123	–
318.95 K	0.1121	–
319.16 K	–	7.6e-08
319.54 K	–	7.59e-08
319.84 K	–	7.56e-08

C1CCCCCC1 [cycloheptane]
Conditions	thermal conductivity [W/m/K]	thermal diffusivity [m2/s]
262.18 K	0.1272	–
262.37 K	0.1271	–
262.5 K	0.1271	–
262.77 K	–	8.84e-08
263.24 K	–	8.9e-08
263.56 K	–	8.91e-08
280.17 K	0.1228	–
280.35 K	0.1227	–
280.48 K	0.1227	–
280.76 K	–	8.39e-08
281.19 K	–	8.4e-08
281.5 K	–	8.4e-08
297.01 K	0.1187	–
297.2 K	0.1185	–
297.33 K	0.1185	–
297.59 K	–	7.97e-08
298.03 K	–	7.98e-08
298.33 K	–	7.98e-08
320.05 K	0.1132	–
320.23 K	0.1131	–
320.36 K	0.113	–
320.62 K	–	7.47e-08
321.05 K	–	7.46e-08
321.34 K	–	7.46e-08

c1ccccc1 [benzene]
Conditions	thermal conductivity [W/m/K]	thermal diffusivity [m2/s]
281.18 K	0.1464	–
281.49 K	0.1462	–
281.76 K	0.1461	–
282.86 K	–	9.74e-08
283.9 K	–	9.74e-08
284.75 K	–	9.72e-08
295.92 K	0.1416	–
296.25 K	0.1414	–
296.53 K	0.1413	–
297.67 K	–	9.4e-08
298.78 K	–	9.44e-08
299.68 K	–	9.44e-08
301.25 K	0.1399	–
301.59 K	0.1398	–
301.87 K	0.1396	–
303.02 K	–	9.29e-08
304.13 K	–	9.31e-08
305.05 K	–	9.29e-08
319.14 K	0.134	–
319.49 K	0.1338	–
319.79 K	0.1337	–
321.04 K	–	8.97e-08
322.15 K	–	8.92e-08
323.12 K	–	8.9e-08

CC(C)c1ccccc1 [isopropylbenzene]
Conditions	thermal conductivity [W/m/K]	thermal diffusivity [m2/s]
261.13 K	0.1263	–
261.33 K	0.1262	–
261.48 K	0.1262	–
261.85 K	–	8.45e-08
262.36 K	–	8.45e-08
262.72 K	–	8.44e-08
275.03 K	0.1238	–
275.24 K	0.1237	–
275.4 K	0.1237	–
275.75 K	–	8.18e-08
276.27 K	–	8.21e-08
276.65 K	–	8.22e-08
294.11 K	0.1202	–
294.32 K	0.12	–
294.47 K	0.1199	–
294.85 K	–	7.92e-08
295.35 K	–	7.86e-08
295.72 K	–	7.86e-08
312.46 K	0.1164	–
312.68 K	0.1163	–
312.84 K	0.1162	–
313.18 K	–	7.51e-08
313.72 K	–	7.54e-08
314.09 K	–	7.53e-08
329.45 K	0.1128	–
329.68 K	0.1127	–
329.83 K	0.1126	–
330.17 K	–	7.21e-08
330.7 K	–	7.21e-08
331.08 K	–	7.21e-08
